Measurements reported in patent US20110257146A1, “Method of Treating Kcnq Related Disorders Using Organozinc Compounds” (The johns Hopkins University, priority 2006, published 2011).
Like-named read-outs stand apart in the source and are kept apart here.

Key:
[1] = target: T1, KCNQ2 (Rattus norvegicus, UniProt O88943); assay: Whole-cell voltage clamp of CHO cells expressing KCNQ2; format: cell-based; parameters: expressed in transfected cells; host or cells: CHO cells; details: for effect on KCNQ2 current amplitude of metal salt added to sodium pyrithione perfusion: metal salt (ZnSO4 10 μM) supplemented to 20 μM sodium pyrithione
Procedure: Cell culture and transient transfection—Chinese Hamster Ovary (CHO) cells were grown in 50/50 DMEM/F12 (Cellgro) with 10% FBS (Gibco), 100 U/ml penicillin (Cellgro), 100 μg/ml streptomycin (Cellgro) and 2 mM L-glutamine (Gibco). At 24 hours before transfection, cells were split and plated in 60 mm dishes and were transfected with Lipofectamine2000™ reagent (Invitrogen) according to the manufacturer's instruction. At 24 hours after transfection, cells were split and re-plated onto coverslips coated with poly-L-lysine (Sigma). Plasmid expressing CD4 cDNA as a marker was cotransfected with the channel cDNAs of hKCNQ1 (from Dr. Michael Sanguinetti), hKCNQ4 (from Dr. Vitya Vardanyan), rKCNQ2, rKCNQ3, and hKCNQ5 (from Drs. David McKinnon, Mark Shapiro, and Thomas Jentsch). Prior to recording, anti-CD4 Dynabeads (Dynal. Biotech. Inc.) were added into the medium to allow for identification of the transfected cells. Stable lines expressing Kv2.1, hERG, and Kv4.2 were generated by standard protocols using pcDNA3.1 and maintained at complete medium supplemented with 500 μg/ml G418. The N-type calcium channel stable line was a kind gift from Drs. Diane Lipscombe and David Yue.
(§1) Electrophysiological Recording—Standard whole-cell recording was used. Pipettes were pulled from borosilicate glass capillaries (TW150-4, World Precision Instruments, Sarasota, Fla.). When filled with the intracellular solution, the pipettes have resistances of […]. During the recording, constant perfusion of extracellular solution was maintained using a BPS perfusion system (ALA, Westbury, N.Y.). Pipette solution contained (mM): KCl 145, MgCl2 1, EGTA 5, HEPES 10, MgATP 5 (pH 7.3); extracellular solution contained (mM): NaCl 140, KCl 3, CaCl2 2, MgCl2 1.5, HEPES 10, glucose 10 (pH 7.4). Current and voltage were recorded using an Axopatch-200A amplifier, filtered at 1 kHz and digitized using a DigiData 1322A with pClamp 9.2 software (Axon Instruments, Foster City, Calif.). Series resistance compensation was also used and set to 60-80%.
Data and Statistical Analysis—Patch-clamp data were preprocessed using Clampfit 9.2 (Axon Instruments, Foster City, Calif.) and then analyzed in Origin 7 (OriginLab, Northampton, Mass.). The activation curve was fitted by the Boltzmann equation: G=(Gmax−Gmin)/[1+exp[(V−V1/2)/S]]+Gmin, where Gmax is the maximum conductance, Gmin is the minimum conductance, V1/2 is the voltage for half of the total numbers of channels to open, and S is the slope factor. The dose response curve was fitted by the Hill equation: E=Emax/(1+(EC50/C)^P), where Emax is the maximum response, C is the drug concentration, EC50 is the drug concentration producing half of the maximum response, and P is the Hill coefficient. The deactivation trace was fitted by the standard exponential equation: I(t)=ΣIi*exp(−t/τi), where I is the current, t is the time and τ is the time constant. Data are presented as means±SE. Significance was estimated using paired two-tailed Student's t-test.

[2] = system: hippocampal neurons; assay: Membrane potential and elicited action potentials of isolated hippocampal neurons; format: cell-based, rat; details: 15 μM linopirdine added after 10 μM ZnPy
Procedure: FIG. 10. ZnPy potentiation of native M-current. A. M current recorded from an isolated rat dorsal root ganglion neuron, Vh was −60 mV, stepped to −20 mV, followed by a step to −50 mV, and stepped back to −20 mV. B. Histograms show M-current amplitudes in the presence and absence of 10 μM ZnPy (n=10, * p<0.001). M-current amplitudes were measured by fitting the IM relaxation with an exponential equation. The recording bath solution includes 1 μM TTX, 0.2 mM TEA, 1 mM 4-AP, 50 μM CNQX, and 10 μM bicuculline. C. Membrane potential of an isolated hippocampal neuron was monitored when 10 μM ZnPy was applied in bath solution followed by the addition of 15 μM linopirdine. D. Action potentials elicited by 200 pA current injection to a patched hippocampal neuron. The ZnPy treatments are as indicated.
Neuron Culture—Dorsal root ganglia (DRG) was collected from fourteen-day-old CD rat and incubated in collagenase (sigma, 500 U/ml, 15 min) and then trypsin (Sigma, 1 mg/ml, 30 min) at 37° C. Single DRG neurons were isolated by mechanical trituration with a fire-polished glass Pasteur pipette. Hippocampal tissue was dissected out from CD rat postnatal day 0. The tissue was digested with papain (Worthington Biochem, 20 U/ml, 30 min) and resuspended into single cells. The single-cell suspension was plated onto a monolayer of glial cells that were growing on coated cover slips. Cytosine-1-D-arabinofuranoside at 5 μM was added into the culture medium 24-48 hours later to arrest glial cell proliferation. The culture medium consisted of Neurobasal™ medium with B-27 supplement (Gibco), penicillin/streptomycin and 2 mM L-glutamine. All cells were maintained at 37° C. with 5% CO2 prior to recording.
Electrophysiological Recording—Standard whole-cell recording was used. Pipettes were pulled from borosilicate glass capillaries (TW150-4, World Precision Instruments, Sarasota, Fla.). […] Current and voltage were recorded using an Axopatch-200A amplifier, filtered at 1 kHz and digitized using a DigiData 1322A with pClamp 9.2 software (Axon Instruments, Foster City, Calif.). […]

[3] = target: T1, KCNQ2; assay: Single channel outside-out patch recording of KCNQ2; format: cell-based; parameters: expressed in transfected cells; host or cells: CHO cells; details: 50 μM linopirdine
Procedure: For single channel recording procedure, outside-out patch recording was used. The pipettes had resistances of 7-15 MΩ when filled with the intracellular solution of the following composition (mM): KCl 145, MgCl2 1, EGTA 5, HEPES 10, MgATP 5 (pH 7.3). Extracellular solution contained (mM): NaCl 150, KCl 5, CaCl2 2, MgCl2 1, HEPES 10, glucose 10 (pH 7.4). Current and voltage were recorded using an Axopatch-200B amplifier, sample at 4 kHz and filtered at 200 Hz, and digitized using a DigiData 1322A with pClamp 9.2 software (Axon Instruments, Foster City, Calif.).
The open probability (Po) and single channel current (i) were calculated by fitting all-point histograms with single- or multi-Gaussian curves. The ratio of the area under the fitted ‘open’ Gaussian to the total area under the entire Gaussian was taken as Po, and the difference between the fitted “closed” and “open” peaks was taken as i, single channel conductance (γ) was calculated by the equation: γ=i/(V−V5).

[4] = target: T2, KCNQ2(Y284C) (Rattus norvegicus, UniProt O88943, Y284C); assay: Whole-cell recording of KCNQ2(Y284C) BFNC mutant in CHO cells; format: cell-based; details: retigabine
T2 construct: expressed in transfected cells; host or cells: CHO cells, transient
Procedure: (§2) FIG. 11. ZnPy effects on BFNC mutant channels expressed in CHO cells. A. whole-cell currents of KCNQ2(R207W), KCNQ2(Y284C), and KCNQ2(A306T) were recorded in the absence (left) and presence (right) of 10 μM ZnPy, Vh was −80 mV, in 10 mV voltage steps from −70 mV to +50 mV. B. a histogram plotting potentiation effects on KCNQ2 wild type (wt) and BFNC mutants (R207W, Y284C and […]) by ZnPy (filled box) and retigabine (open box) (n≧4, * p<0.001, ** p<0.05).
(§3) Mutagenesis—Starting from KCNQ cDNAs, the KCNQ2 point mutants were constructed by recombinant PCR and verified by sequencing.
as §1, with “Series resistance compensation was also used and set to 60-80%.” left out

[5] = target: T3, KCNQ2(R207W) (Rattus norvegicus, UniProt O88943, R207W); assay: Whole-cell recording of KCNQ2(R207W) BFNC mutant in CHO cells; format: cell-based; details: retigabine
T3 construct: expressed in transfected cells; host or cells: CHO cells, transient
Procedure: as §2, §3
as §1, with “Series resistance compensation was also used and set to 60-80%.” left out

[6] = target: T4, KCNQ2(A306T) (Rattus norvegicus, UniProt O88943, A306T); assay: Whole-cell recording of KCNQ2(A306T) mutant in CHO cells; format: cell-based; details: retigabine
T4 construct: expressed in transfected cells; host or cells: CHO cells
Procedure: FIG. 9. KCNQ2 point mutants selectively lose ZnPy sensitivity. […] Each mutation site was indicated based on the predicted transmembrane regions. Dashed line indicates the potentiation level of wt KCNQ2 channel in the absence of ZnPy. […] C. Modeling of the S5-pore-S6 region of KCNQ2.
as §2, §3, §1

[7] = target: TRPM8 (Homo sapiens, UniProt Q7Z2W7); details: shift from 32 mV; cited from earlier work
[8] = In vivo Geller conflict test for anxiolytics; parameters: species or system rats; details: positive control
Procedure: In the Geller conflict test (see, e.g., Geller & Seifter, Psychophamracologia 1:482-492 (1960: Pollard & Howard, Psychopharmacology 62:117-121 (1979)), rats are trained to press a lever to receive food pellets during daily 1 hour sessions. The sessions are divided into punished and unpunished phases. During the four, three-minute punished periods, a light signals that each lever press will produce both a pellet and a foot shock (punishment), which reduces lever pressing. The number of punished lever presses on test days (when test compound is administered) is compared to the mean on baseline days. The positive control, chlordiazepoxide, increases punished lever pressing by >50%. A compound that produces an increase of approximately 40% or greater is generally considered to be of interest as a rapid-onset anxiolytic.
A compound with selective KCNQ1 channel opening activity increases punished responding in a dose-dependent manner. The increase in punished responding is statistically significant (paired t-test p<0.05) at 10, 17, 30, and 56 mg/kg PO with increases of 40% or greater at 30 and 56 mg/kg.

Chain of TRPM8 (Q7Z2W7 whole entry, species assumed): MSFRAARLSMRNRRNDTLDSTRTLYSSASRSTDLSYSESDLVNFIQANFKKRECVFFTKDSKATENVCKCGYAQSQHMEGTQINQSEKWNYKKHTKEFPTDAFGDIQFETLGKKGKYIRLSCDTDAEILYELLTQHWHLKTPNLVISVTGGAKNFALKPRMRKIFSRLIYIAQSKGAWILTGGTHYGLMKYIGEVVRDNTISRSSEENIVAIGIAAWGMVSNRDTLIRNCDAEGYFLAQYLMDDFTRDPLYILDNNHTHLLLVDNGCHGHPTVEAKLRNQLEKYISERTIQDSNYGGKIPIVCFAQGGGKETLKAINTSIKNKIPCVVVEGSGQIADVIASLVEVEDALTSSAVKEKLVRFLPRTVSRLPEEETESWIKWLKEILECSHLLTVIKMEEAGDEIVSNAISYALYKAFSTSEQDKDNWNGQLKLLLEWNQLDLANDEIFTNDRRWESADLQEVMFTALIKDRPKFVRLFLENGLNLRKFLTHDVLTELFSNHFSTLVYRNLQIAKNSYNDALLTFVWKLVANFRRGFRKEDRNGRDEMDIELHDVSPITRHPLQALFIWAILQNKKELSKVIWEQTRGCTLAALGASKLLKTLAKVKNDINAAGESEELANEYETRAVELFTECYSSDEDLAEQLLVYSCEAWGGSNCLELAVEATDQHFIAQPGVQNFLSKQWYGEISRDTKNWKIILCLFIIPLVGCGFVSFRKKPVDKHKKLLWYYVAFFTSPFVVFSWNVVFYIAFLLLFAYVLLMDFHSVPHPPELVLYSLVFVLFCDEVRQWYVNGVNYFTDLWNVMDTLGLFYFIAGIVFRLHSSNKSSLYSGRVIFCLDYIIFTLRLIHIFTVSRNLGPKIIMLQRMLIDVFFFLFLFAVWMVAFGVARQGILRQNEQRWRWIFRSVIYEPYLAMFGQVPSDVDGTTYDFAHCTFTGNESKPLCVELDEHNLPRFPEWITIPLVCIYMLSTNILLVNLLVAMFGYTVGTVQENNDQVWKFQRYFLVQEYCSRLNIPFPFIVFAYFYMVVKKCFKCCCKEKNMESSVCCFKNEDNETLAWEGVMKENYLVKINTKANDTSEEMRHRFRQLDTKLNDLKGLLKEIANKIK

## [Cl][Cd][Cl] [CdCl2]
[1]
  effect on KCNQ2 current amplitude of metal salt added to sodium pyrithione perfusion: did not induce any potentiation

## [Zn+2] [Zn^2+]
[1]
  effect on KCNQ2 channel, zinc ion alone: cannot induce any detectable effect

## O=C1N(c2ccccc2)c2ccccc2C1(Cc1ccncc1)Cc1ccncc1 [linopirdine]
[1]; 30 μM linopirdine, +50 mV
  effect on KCNQ2 current: rapid inhibition
[2]
  effect on ZnPy-induced hyperpolarization: completely abolished the hyperpolarization of membrane potential
[3]
  effect on single channel activity: fully blocked

## CC[N+](CC)(CC)CC [TEA, tetraethylammonium]
[1]
  effect on KCNQ2 current: completely blocked

## CCOC(=O)Nc1ccc(NCc2ccc(F)cc2)cc1N [Retigabine, retigabine]
[4]
  current potentiation: < 50%
[5]
  current potentiation: < 50%
[6]
  current potentiation: < 50%

## Oc1c(I)cc(I)c2cccnc12 [5,7-diiodo-8-hydroxyquinoline]
[1]; +50 mV
  potentiation of KCNQ2 current amplitude by zinc ionophores: None displayed any potentiation effect on current amplitude

## O=S(=O)([O-])[O-].[Zn+2] [ZnSO4]
[1]
  effect on KCNQ2 current amplitude of metal salt added to sodium pyrithione perfusion: marked increase in current amplitude

## Oc1ccc(N=Nc2ccccn2)c(O)c1 [PAR, 4-(2)-(pyridylazo) resorcinol]
[1]; 100 μM PAR
  effect on potentiation induced by sodium pyrithione plus ZnSO4: abolished
[1]; PAR itself
  effect on KCNQ2 channel activity, compound alone: had no effect on KCNQ2 channel activity

## O=S(=O)([O-])[O-].[Cu+2] [CuSO4]
[1]
  effect on KCNQ2 current amplitude of metal salt added to sodium pyrithione perfusion: did not induce any potentiation

## CC1CCC(C(C)C)C(O)C1 (centres unmarked) [Menthol]
[7]
  V1/2 after menthol binding: −31 mV

## CNC1=Nc2ccc(Cl)cc2C(c2ccccc2)=[N+]([O-])C1 [chlordiazepoxide]
[8]
  increase of punished lever pressing: > 50%

## [Na+].[O-][n+]1ccccc1[S-] [sodium pyrithione]
[1]
  effect on KCNQ2 current amplitude: no change in current amplitude
